Structures can show the parent of a compound that is named as a salt.
Target: T1, Human RET kinase cytoplasmic domain (Homo sapiens, UniProt P07949)
T1 construct: made in house
T1 sequence (P07949 658-1114): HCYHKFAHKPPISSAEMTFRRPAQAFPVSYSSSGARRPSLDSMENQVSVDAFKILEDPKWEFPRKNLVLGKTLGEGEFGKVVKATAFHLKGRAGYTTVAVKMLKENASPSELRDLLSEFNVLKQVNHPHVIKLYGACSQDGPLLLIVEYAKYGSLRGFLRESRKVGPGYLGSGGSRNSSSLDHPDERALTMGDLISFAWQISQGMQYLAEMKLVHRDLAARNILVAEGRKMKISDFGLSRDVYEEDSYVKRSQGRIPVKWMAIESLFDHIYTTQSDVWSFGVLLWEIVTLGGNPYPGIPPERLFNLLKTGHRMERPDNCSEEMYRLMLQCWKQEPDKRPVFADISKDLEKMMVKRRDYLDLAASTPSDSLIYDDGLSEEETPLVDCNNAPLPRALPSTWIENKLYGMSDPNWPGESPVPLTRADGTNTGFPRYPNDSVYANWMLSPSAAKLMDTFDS
Assay: RET kinase enzymatic assay
Assay type: biochemical
In short: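 GST-RET, 0.2 nM in 2× enzyme mix (HEPES, CHAPS, BSA, DTT), preincubated with inhibitor 30 min at 23 °C. Reaction for 1 h at 23 °C after adding 2× substrate mix: 20 μM ATP, 20 mM MgCl2, 1 μM biotinylated peptide. Single wells per concentration; IC50 from sigmoidal dose-response fit.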

IC50	SMILES
< 100 nM	CCOc1cc(-c2ccc(NC(=O)Nc3ccc(OC(C)(C)C)c(C(F)(F)F)c3)cc2)c[nH]c1=O [Example 79]
< 100 nM	CCOc1cc(-c2ccc(NC(=O)Nc3ccc(CN4CCN(CC)CC4)c(C(F)(F)F)c3)c(C(F)F)c2)c[nH]c1=O [Example 30, 1-(2-(Difluoromethyl)-4-(5-ethoxy-6-oxo-1,6-dihydropyridin-3-yl)phenyl)-3-(4-((4-ethylpiperazin-1-yl)methyl)-3-(trifluoromethyl)phenyl)urea]
< 100 nM	CC1(Oc2ccc(NC(=O)Nc3ccc(-c4c[nH]c(=O)c(F)c4)cc3F)cc2C(F)(F)F)COC1 [Example 36, 1-(2-Fluoro-4-(5-fluoro-6-oxo-1,6-dihydropyridin-3-yl)phenyl)-3-(4-((3-methyloxetan-3-yl)oxy)-3-(trifluoromethyl)phenyl)urea]
< 100 nM	CCOc1cc(-c2ccc(NC(=O)Nc3ccc(C(C)O)c(C(F)(F)F)c3)c(F)c2)c[nH]c1=O (centres unmarked) [Example 116]
< 100 nM	CC(C)Oc1cc(-c2ccc(NC(=O)Nc3ccc(OC4(C)COC4)c(C(F)(F)F)c3)c(F)c2)c[nH]c1=O [Example 136]
< 100 nM	CCOc1cc(-c2ccc(NC(=O)Nc3ccc(OC(C)C)c(C(F)F)c3)cc2F)c[nH]c1=O [Example 160]
< 100 nM	CCOc1cc(=O)[nH]cc1-c1ncc(NC(=O)Nc2cc(C(C)(C)C(F)(F)F)on2)c(C)n1 [Example 46, 1-(2-(4-Ethoxy-6-oxo-1,6-dihydropyridin-3-yl)-4-methylpyrimidin-5-yl)-3-(5-(1,1,1-trifluoro-2-methylpropan-2-yl)isoxazol-3-yl)urea]
< 100 nM	CCOc1cc(-c2ccc(NC(=O)Nc3ccc(OC4(C)COC4)c(C(F)(F)F)c3)nc2)c[nH]c1=O [Example 27, 1-(5′-Ethoxy-6′-oxo-1′,6′-dihydro-[3,3′-bipyridin]-6-yl)-3-(4-((3-methyloxetan-3-yl)oxy)-3-(trifluoromethyl)phenyl)urea]
< 100 nM	CCOc1cc(=O)[nH]cc1-c1ccc(NC(=O)Nc2ccc(OC3(C)COC3)c(C(F)(F)F)c2)c(F)c1 [Example 18, 1-(4-(4-Ethoxy-6-oxo-1,6-dihydropyridin-3-yl)-2-fluorophenyl)-3-(4-((3-methyloxetan-3-yl)oxy)-3-(trifluoromethyl)phenyl)urea]
< 100 nM	CCOc1cc(-c2ccc(NC(=O)Nc3ccc(OC4(C)COC4)c(C(F)(F)F)c3)c(OC)n2)c[nH]c1=O [Example 110]
< 100 nM	CCOc1cc(Oc2ccc(NC(=O)Nc3ccc(CN4CCN(CC)CC4)c(C(F)(F)F)c3)cc2)c[nH]c1=O [Example 31, 1-(4-((5-Ethoxy-6-oxo-1,6-dihydropyridin-3-yl)oxy)phenyl)-3-(4-((4-ethylpiperazin-1-yl)methyl)-3-(trifluoromethyl)phenyl)urea]
< 100 nM	CCOc1cc(-c2ccc(NC(=O)Nc3ccc(OC4(C)CCN(C(C)C)C4)c(C(F)(F)F)c3)c(F)c2)c[nH]c1=O (centres unmarked) [Example 85]
< 100 nM	O=C(Nc1ccc(OCCO)c(C(F)(F)F)c1)Nc1ccc(-c2c[nH]c(=O)c(OC(F)F)c2)cc1F [Example 164]
< 100 nM	CCOc1cc(-c2ccc(NC(=O)Nc3ccc(CN4CC[C@H](F)C4)c(C(F)(F)F)c3)c(F)c2)c[nH]c1=O [Example 154]
< 100 nM	CCOc1cc(-c2ccc(NC(=O)Nc3ccc(OC(C)(C)COC)c(C(F)(F)F)c3)c(F)c2)c[nH]c1=O [Example 159]
< 100 nM	CCOc1cc(-c2ccc(NC(=O)Nc3ccc(OC(C)(C)CO)c(C(F)(F)F)c3)c(F)c2)c[nH]c1=O [Example 118]

IC50	SMILES
< 100 nM	CCOc1cc(-c2ccc(NC(=O)Nc3ccc(OC4(CO)CCC4)c(C(F)(F)F)c3)c(F)c2)c[nH]c1=O [Example 134]
< 100 nM	CC1(Oc2ccc(NC(=O)Nc3ccc(-c4c[nH]c(=O)c(O)c4)cc3F)cc2C(F)(F)F)COC1 [Example 94]
< 100 nM	Cc1nc(-c2c[nH]c(=O)c3occc23)ncc1NC(=O)Nc1cnc(C(C)(C)O)c(C(F)(F)F)c1 [Example 39, 1-(6-(2-Hydroxypropan-2-yl)-5-(trifluoromethyl)pyridin-3-yl)-3-(4-methyl-2-(7-oxo-6,7-dihydrofuro[2,3-c]pyridin-4-yl)pyrimidin-5-yl)urea]
< 100 nM	CCOc1cc(-c2ncc(NC(=O)Nc3cc(C(F)(F)F)c(CN(C)C)cc3F)cn2)c[nH]c1=O [Example 188, 1-(4-((Dimethylamino)methyl)-2-fluoro-5-(trifluoromethyl)phenyl)-3-(2-(5-ethoxy-6-oxo-1,6-dihydropyridin-3-yl)pyrimidin-5-yl)urea dihydrochloride]
< 100 nM	CCOc1cc(-c2ccc(NC(=O)Nc3ccc(C(C)(C)O)c(C(F)(F)F)c3)c(F)c2)c[nH]c1=O [Example 129]
< 100 nM	CCOc1cc(-c2ccc(NC(=O)Nc3ccc(CO)c(C(F)(F)F)c3)c(F)c2)c[nH]c1=O [Example 132]
< 100 nM	CCOc1cc(=O)[nH]cc1-c1ncc(NC(=O)Nc2ccc(C(C)C#N)c(C(F)(F)F)c2)c(C)n1 (centres unmarked) [Example 24, 1-(4-(1-Cyanoethyl)-3-(trifluoromethyl)phenyl)-3-(2-(4-ethoxy-6-oxo-1,6-dihydropyridin-3-yl)-4-methylpyrimidin-5-yl)urea]
< 100 nM	CCOc1cc(-c2ccc(NC(=O)Nc3cnc(C(C)(C)O)c(C(F)(F)F)c3)c(F)c2)c[nH]c1=O [Example 89]
< 100 nM	COc1cc(-c2ccc(NC(=O)Nc3ccc(OC4(C)COC4)c(C(F)(F)F)c3)cc2)c[nH]c1=O [Example 21, 1-(4-(5-Methoxy-6-oxo-1,6-dihydropyridin-3-yl)phenyl)-3-(4-((3-methyloxetan-3-yl)oxy)-3-(trifluoromethyl)phenyl)urea]
< 100 nM	CCOc1cc(-c2cc(C)c(NC(=O)Nc3ccc(OC4(C)COC4)c(C(F)(F)F)c3)cn2)c[nH]c1=O [Example 97]
< 100 nM	CCOc1cc(=O)[nH]cc1-c1ncc(NC(=O)Nc2cc(-n3cnc(C)c3)cc(C(F)(F)F)c2)c(C)n1 [Example 52, 1-(2-(4-Ethoxy-6-oxo-1,6-dihydropyridin-3-yl)-4-methylpyrimidin-5-yl)-3-(3-(4-methyl-1H-imidazol-1-yl)-5-(trifluoromethyl)phenyl)urea]
< 100 nM	CCOc1cc(-c2ccc(NC(=O)Nc3ccc(OC(C)C)c(C(F)F)c3)c(C)n2)c[nH]c1=O [Example 6, 1-(3-(Difluoromethyl)-4-isopropoxyphenyl)-3-(5′-ethoxy-6-methyl-6′-oxo-1′,6′-dihydro-[2,3′-bipyridin]-5-yl)urea]
100 to 500 nM	CCOc1ccc(NC(=O)Nc2ccc(-c3ccc(=O)n(CC)c3)cc2F)cc1C(F)(F)F [Example 113]
< 100 nM	CCOc1cc(-c2cc(F)c(NC(=O)Nc3ccc(OC4(C)COC4)c(C(F)(F)F)c3)c(F)c2)c[nH]c1=O [Example 90]
< 100 nM	CC1(Oc2ccc(NC(=O)Nc3ccc(-c4c[nH]c(=O)c(OC5CC5)c4)cc3F)cc2C(F)(F)F)COC1 [Example 20, 1-(4-(5-Cyclopropoxy-6-oxo-1,6-dihydropyridin-3-yl)-2-fluorophenyl)-3-(4-((3-methyloxetan-3-yl)oxy)-3-(trifluoromethyl)phenyl)urea]
< 100 nM	CCOc1cc(-c2ncc(NC(=O)Nc3cccc(C(F)(F)F)c3)c(C)n2)c[nH]c1=O [Example 42, 1-(2-(5-Ethoxy-6-oxo-1,6-dihydropyridin-3-yl)-4-methylpyrimidin-5-yl)-3-(3-(trifluoromethyl)phenyl)urea]
